“Also recorded” adds a separate entry of the source.
Assays:
[1] = target: T1, BRD4 (Homo sapiens, UniProt O60885); assay: Summary of BRD4 degradation by CURE-PRO pairs, estimated from Western Blot or WES (Proteinsimple); type: cell-based; parameters: endogenous in cells; settings: for Degradation of BRD4 in combination with CRBN ligand [drawing 371]: second drawing (8047); for Degradation of BRD4 in combination with VHL ligand [drawing 397]: Table 3, aromatic 1,2-diol-containing VHL ligand, second drawing (8305); for Degradation of BRD4 in combination with CRBN ligand [drawing 370]: aromatic 1,2-diol- or hindered cis-1,2-diol-containing CRBN ligand, first drawing (8046); for Degradation of BRD4 in combination with CRBN ligand [drawing 407]: Table 4, aryl-boronic acid-containing CRBN ligand, first drawing (by text: 8048)
Source text: A black check mark indicates efficacy of 30% to 70% or higher protein degradation.

[2] = target: T1, BRD4; assay: CURE-PRO-mediated BRD4 degradation, Western blot, HeLa cells; type: cell-based; parameters: endogenous in cells; host or cells: HeLa; settings: 24 h, Western blot; for BRD4 degradation, co-treatment with CRBN ligand 8048: 1:1 with 8048, 1-10 μM each; for BRD4 degradation, BRD ligand alone: BRD monomer alone; for BRD4 degradation, co-treatment with CRBN ligand 8047: 1:1 with 8047, 10 μM each; for BRD4 degradation, co-treatment with CRBN ligand 8049: 1:1 with 8049, 1-10 μM each
Method: All cell lines were purchased from ATCC or DSMZ and grown at 37° C. with 5% CO2. Human HeLa cells were cultured in complete growth medium (Dulbecco's modified Eagle's medium (DMEM) supplemented with 10% FBS); MCF7 cells were cultured in complete growth medium (Dulbecco's modified Eagle's medium (DMEM) supplemented with 10% FBS and 0.01 mg/ml human recombinant insulin (Sigma Aldrich); Namalwa and MOLM-13 cells were cultured in complete growth medium (RPMI 1640 medium supplemented with 10% FBS); MV-4-11 were cultured in complete growth medium (Iscove's Modified Dulbecco's medium, supplemented with 10% FBS); HCT116 cells were cultured in complete growth medium (McCoy's 5a Medium supplemented with 10% FBS). For cellular degradation of BRD4 studies, cells were seeded in a 12-well plate at 70-80% confluency, allowed to attach overnight, and incubated with the indicated compounds for the indicated time. When indicated, a 15-minute pretreatment with 10 μM pomalidomide, 10 μM VHL298, 10 μM Nutlin3a, 1 μM MG-132 or 1 μM Carfilzomib was performed before the addition of CURE-PROs. For washout studies, after CURE-PRO treatment, media was aspirated and incubated with complete medium for the indicated time before lysis.
Anti-BRD4 (13440, 1:1,000 dilution for Western Blot and 1:25 dilution for ProteinSimple); Anti-BRD2 (5848 1:1,000 dilution for Western Blot and 1:25 dilution for ProteinSimple); β-Actin (3700, 1:2,000 dilution for Western Blot), β-Actin (4970, 1:50 dilution for ProteinSimple) anti-mouse IgG-HRP, and anti-rabbit IgG-HRP antibodies were purchased Cell Signaling Technology. Anti-GAPDH (600-401-A33, 1:100 dilution for ProteinSimple) was purchased from Rockland Immunochemicals, Inc. Anti-BRD3 (sc-81202, 1:200 dilution for Western Blot) was purchased from Santa Cruz Biotechnology.
HeLa, MCF7, or HCT116 cells (2.5-3×10^6) were treated for 24 hours with the indicated compounds solubilized in DMSO. The cells were washed in ice-cold PBS and were then lysed in RIPA lysis buffer (150 mM NaCl, 5 mM EDTA, 1% NP-40, 0.5% sodium deoxycholate, 0.1% SDS, 50 mM Tris, pH 8.0.) with Roche protease inhibitor complete cocktail and phosphatase inhibitors (10 mM sodium fluoride, 10 mM sodium pyrophosphate, 1 mM sodium orthovanadate and 20 mM β-glycerophosphate). The total protein concentrations were determined by Bradford Protein Assay and 10-20 μg of protein was loaded onto 4-15% Tris-Glycine gradient gels (Biorad). After standard gel electrophoresis, the separated proteins were transferred to PVDF membrane by wet transfer. The immunoblots were then blocked for 1 hour in 5% skim milk in TBST or 5% BSA in TBST, according to manufacturer's instructions, before an overnight incubation at 4° C. with indicated antibodies and membranes. Membranes were then incubated with the appropriate horseradish peroxidase-conjugated secondary antibodies (1:5,000 dilution) for 1 h at room temperature and the bands were visualized using the Clarity Max Western ECL Substrate (Biorad) and the ChemiDoc Imaging System (Biorad). Signal was detected with ECL Western Blotting Substrate (Pierce) and X-ray film processed with a Konica SRX-101 X-ray film processor or captured by Bio-Rad's Chemidoc Imaging system.
HeLa cells (2.5×106) were treated for 24 hours with the sample compounds solubilized in DMSO. Compounds were added at 1-10 μM each. Standardized protein samples were electrophoresed and imaged as described in the immunoblotting description above. FIGS. 6-18 depicts the CURE-PRO-mediated BRD4 degradation for BRD monomers (JQ1 derivatives comprising of catechol linkers), and CRBN ligands, 8048 and 8049 (pomalidomide derivatives comprising boronic acid linkers) combined in a 1:1 ratio.
HeLa cells (2.5×106) were treated for 24 hours with the compounds solubilized in DMSO. The compounds were added at 10 μM each. Standardized protein samples were electrophoresed and imaged as described in the immunoblotting section above. […]

In the case of COc1ccc2c(c1)C(c1ccc(Cl)cc1)=N[C@@H](CC(=O)NCCNC(=O)Cc1cccc(B(O)O)c1)c1nnc(C)n1-2 [BRD- E38], the “Degradation of BRD4 in combination with CRBN ligand [drawing 371]” value ([1]; Table 1, CRBN ligand) is reported as “✓ (A black check mark indicates efficacy of 30% to 70% or higher protein degradation)”.
For COc1ccc2c(c1)C(c1ccc(Cl)cc1)=N[C@@H](CC(=O)NCc1ccc(B(O)O)cc1)c1nnc(C)n1-2 [BRD-E09, (4-((2-((4S)-6-(4-chlorophenyl)-8-methoxy-1-methyl-4H-benzo[f][1,2,4]triazolo[4,3-a][1,4]diazepin-4-yl)acetamido)methyl)phenyl)boronic acid], the “Degradation of BRD4 in combination with VHL ligand [drawing 397]” value (“Degradation of BRD4 … [drawing 397]” for short) [1] was “✓ (A black check mark indicates efficacy of 30% to 70% or higher protein degradation)”.
In the case of CCNC(=O)C[C@@H]1N=C(c2ccc(Cl)cc2)c2cc(OCCOCCNC(=O)c3ccc(B(O)O)cc3)ccc2-n2c(C)nnc21 [BRD- E39], the “Degradation of BRD4 in combination with CRBN ligand [drawing 370]” value ([1]; Table 1) is reported as “✓ (A black check mark indicates efficacy of 30% to 70% or higher protein degradation)”.
For CCNC(=O)C[C@@H]1N=C(c2ccc(Cl)cc2)c2cc(OCCOCCOCCNC(=O)c3ccc(O)c(O)c3)ccc2-n2c(C)nnc21 [BRD- N40], the “Degradation of BRD4 in combination with aryl-boronic acid-containing VHL ligand” value ([1]; Table 6, head shows drawings [drawing 429] and [drawing 430]) was “✓ (A black check mark indicates efficacy of 30% to 70% or higher protein degradation)”.
In the case of COc1ccc2c(c1)C(c1ccc(Cl)cc1)=N[C@@H](CC(=O)Nc1ccc(O)c(O)c1)c1nnc(C)n1-2 [BRD-N68], the “Degradation of BRD4 in combination with CRBN ligand [drawing 407]” value (from here on “Degradation of BRD4 … [drawing 407]”) [1] is reported as “✓ (A black check mark indicates efficacy of 30% to 70% or higher protein degradation)”.
In the case of CCNC(=O)C[C@@H]1N=C(c2ccc(Cl)cc2)c2cc(OCCOCCNC(=O)c3ccc(O)c(O)c3)ccc2-n2c(C)nnc21 [BRD-N38, N-(2-(2-(((4S)-6-(4-chlorophenyl)-4-(2-(ethylamino)-2-oxoethyl)-1-methyl-4H-benzo[f][1,2,4]triazolo[4,3-a][1,4]diazepin-8-yl)oxy)ethoxy)ethyl)-3,4-dihydroxybenzamide], the “BRD4 degradation, co-treatment with CRBN ligand 8048” value [2] is reported as “causes degradation of BRD4”, the “BRD4 degradation, BRD ligand alone” value [2] is reported as “no degradation of BRD4” and the “Degradation of BRD4 … [drawing 407]” value [1] is reported as “✓ (A black check mark indicates efficacy of 30% to 70% or higher protein degradation)”.
COc1ccc2c(c1)C(c1ccc(Cl)cc1)=N[C@@H](CC(=O)NCCNC(=O)Cc1ccc(B(O)O)cc1)c1nnc(C)n1-2 [BRD-E27, (4-(2-((2-(2-((4S)-6-(4-chlorophenyl)-8-methoxy-1-methyl-4H-benzo[f][1,2,4]triazolo[4,3-a][1,4]diazepin-4-yl)acetamido)ethyl)amino)-2-oxoethyl)phenyl)boronic acid] was tested, and the “BRD4 degradation, co-treatment with CRBN ligand 8047” value [2] was “causes degradation of BRD4” and the “Degradation of BRD4 in combination with CRBN ligand [drawing 371]” value ([1]; Table 1, CRBN ligand) was “✓ (A black check mark indicates efficacy of 30% to 70% or higher protein degradation)”.
For COc1ccc2c(c1)C(c1ccc(Cl)cc1)=N[C@@H](CC(=O)Nc1ccc(B(O)O)cc1)c1nnc(C)n1-2 [BRD-E74, (4-(2-((4S)-6-(4-chlorophenyl)-8-methoxy-1-methyl-4H-benzo[f][1,2,4]triazolo[4,3-a][1,4]diazepin-4-yl)acetamido)phenyl)boronic acid], the “BRD4 degradation, co-treatment with CRBN ligand 8046” value ([2]; 1:1 with 8046, 10 μM each) was “causes degradation of BRD4”, the “BRD4 degradation, co-treatment with CRBN ligand 8047” value [2] was “causes degradation of BRD4” and the “Degradation of BRD4 in combination with CRBN ligand [drawing 370]” value ([1]; Table 1) was “✓ (A black check mark indicates efficacy of 30% to 70% or higher protein degradation)”.
For COc1ccc2c(c1)C(c1ccc(Cl)cc1)=N[C@@H](CC(=O)NCCOCCOCCOCCOCCNC(=O)c1ccc(O)c(O)c1)c1nnc(C)n1-2 [BRD-N69], the “BRD4 degradation, co-treatment with CRBN ligand 8048” value [2] was “causes degradation of BRD4; also recorded: Degradation is noted”, the “BRD4 degradation, co-treatment with CRBN ligand 8049” value [2] was “no evidence of BRD4 degradation” and the “BRD4 degradation, BRD ligand alone” value [2] was “no degradation of BRD4”. The “Degradation of BRD4 … [drawing 407]” value [1] was “✓ (A black check mark indicates efficacy of 30% to 70% or higher protein degradation)”.
CCNC(=O)C[C@@H]1N=C(c2ccc(Cl)cc2)c2cc(OCCOCCOCCOCCOCCOCCNC(=O)c3cccc(O)c3O)ccc2-n2c(C)nnc21 [BRD-N71, N-(17-(((4S)-6-(4-chlorophenyl)-4-(2-(ethylamino)-2-oxoethyl)-1-methyl-4H-benzo[f][1,2,4]triazolo[4,3-a][1,4]diazepin-8-yl)oxy)-3,6,9,12,15-pentaoxaheptadecyl)-2,3-dihydroxybenzamide] was tested, and the “BRD4 degradation, co-treatment with CRBN ligand 8048” value [2] was “causes degradation of BRD4; also recorded: Some selectivity for BRD-N71 and 8048 is noted”, the “BRD4 degradation, co-treatment with CRBN ligand 8049” value [2] was “no evidence of BRD4 degradation” and the “BRD4 degradation, BRD ligand alone” value [2] was “no degradation of BRD4”. For the same compound, the “Degradation of BRD4 … [drawing 407]” value [1] was “✓ (A black check mark indicates efficacy of 30% to 70% or higher protein degradation)” and the “Degradation of BRD4 in combination with MDM2 ligand [drawing 424]” value ([1]; Table 5, aryl-boronic acid-containing MDM2 ligand, second drawing (8312)) was “✓ (A black check mark indicates efficacy of 30% to 70% or higher protein degradation)”.
CCNC(=O)C[C@@H]1N=C(c2ccc(Cl)cc2)c2cc(OCCCCC(=O)Nc3ccc(O)c(O)c3)ccc2-n2c(C)nnc21 [BRD-N22, 5-(((4S)-6-(4-chlorophenyl)-4-(2-(ethylamino)-2-oxoethyl)-1-methyl-4H-benzo[f][1,2,4]triazolo[4,3-a][1,4]diazepin-8-yl)oxy)-N-(3,4-dihydroxyphenyl)pentanamide] was tested, and the “BRD4 degradation, co-treatment with CRBN ligand 8048” value [2] was “causes degradation of BRD4; also recorded: Degradation is noted”, the “BRD4 degradation, co-treatment with CRBN ligand 8049” value [2] was “no evidence of BRD4 degradation” and the “BRD4 degradation, BRD ligand alone” value [2] was “no degradation of BRD4”. The “Degradation of BRD4 … [drawing 407]” value [1] was “✓ (A black check mark indicates efficacy of 30% to 70% or higher protein degradation)”.
In the case of COc1ccc2c(c1)C(c1ccc(Cl)cc1)=N[C@@H](CC(=O)NCCNC(=O)c1ccc(O)c(O)c1)c1nnc(C)n1-2 [BRD-N1], the “BRD4 degradation, co-treatment with CRBN ligand 8048” value [2] is reported as “causes degradation of BRD4; also recorded: Degradation is noted”, the “BRD4 degradation, co-treatment with CRBN ligand 8049” value [2] is reported as “no evidence of BRD4 degradation” and the “BRD4 degradation, BRD ligand alone” value [2] is reported as “no degradation of BRD4”. For the same compound, the “Degradation of BRD4 … [drawing 407]” value [1] was “✓ (A black check mark indicates efficacy of 30% to 70% or higher protein degradation)”.
With CCNC(=O)C[C@@H]1N=C(c2ccc(SCc3ccc(B(O)O)cc3)cc2)c2cc(OC)ccc2-n2c(C)nnc21 [BRD-E54] the “Degradation of BRD4 … [drawing 397]” value [1] was “✓ (A black check mark indicates efficacy of 30% to 70% or higher protein degradation)”.
COc1ccc2c(c1)C(c1ccc(Cl)cc1)=N[C@@H](CC(=O)NCCNC(=O)c1cccc(B(O)O)c1)c1nnc(C)n1-2 [BRD-E2] was tested, and the “Degradation of BRD4 … [drawing 397]” value [1] was “✓ (A black check mark indicates efficacy of 30% to 70% or higher protein degradation)”.
With COc1ccc2c(c1)C(c1ccc(Cl)cc1)=N[C@@H](CC(=O)NCCCCCNC(=O)c1ccc(B(O)O)cc1)c1nnc(C)n1-2 [BRD- E07] the “Degradation of BRD4 in combination with CRBN ligand [drawing 372]” value ([1]; Table 1, CRBN ligand, third drawing (8066)) was “✓ (A black check mark indicates efficacy of 30% to 70% or higher protein degradation)”.

Source: patent publication US20230277553A1, “THERAPEUTIC COMPOSITION OF CURE-PRO COMPOUNDS FOR TARGETED DEGRADATION OF BET DOMAIN PROTEINS, AND METHODS OF MAKING AND USAGE” (CORNELL UNIVERSITY, priority 2020, published 2023)
